What all share (format): cell-based
Common to all, as to details: alone

In test [1] the test system is Alternaria solani. The experiment in a line: Alternaria solani (early blight tomato/potato) growth inhibition in nutrient broth, microtiter plate, photometric after 48 hrs. The text has this: A synergistic effect exists whenever the action of an active ingredient combination is greater than the sum of the actions of the individual components. The action to be expected E for a given active ingredient combination obeys the so-called COLBY formula and can be calculated as follows (COLBY, S. R. “Calculating synergistic and antagonistic responses of herbicide combination”. Weeds, Vol. 15, pages 20-22; 1967): • ppm=milligrams of active ingredient (=a.i.) per liter of spray mixture • X=% action by active ingredient A) using p ppm of active ingredient • Y=% action by active ingredient B) using q ppm of active ingredient. According to COLBY, the expected (additive) action of active ingredients A)+B) using p+q ppm of active ingredient is If the action actually observed (O) is greater than the expected action (E), then the action of the combination is super-additive, i.e. there is a synergistic effect. In mathematical terms, synergism corresponds to a positive value for the difference of (O-E). In the case of purely complementary addition of activities (expected activity), said difference (O-E) is zero. A negative value of said difference (O-E) signals a loss of activity compared to the expected activity. Alternaria solani (Early Blight Tomato/Potato): Conidia of the fungus from cryogenic storage were directly mixed into nutrient broth (PDB potato dextrose broth). A DMSO solution of the test compounds was placed into a microtiter plate (96-well format) and the nutrient broth containing the fungal spores was added to it. The test plates were incubated at 24 C and the inhibition of growth was determined photometrically after 48 hrs.

Test [2] has as its system Botrytis cinerea. Kind of test: Botrytis cinerea (gray mould) growth inhibition in nutrient broth, microtiter plate, photometric after 72 hrs. The source says:
A synergistic effect exists whenever the action of an active ingredient combination is greater than the sum of the actions of the individual components. The action to be expected E for a given active ingredient combination obeys the so-called COLBY formula and can be calculated as follows (COLBY, S. R. “Calculating synergistic and antagonistic responses of herbicide combination”. Weeds, Vol. 15, pages 20-22; 1967): • ppm=milligrams of active ingredient (=a.i.) per liter of spray mixture • X=% action by active ingredient A) using p ppm of active ingredient • Y=% action by active ingredient B) using q ppm of active ingredient. According to COLBY, the expected (additive) action of active ingredients A)+B) using p+q ppm of active ingredient is If the action actually observed (O) is greater than the expected action (E), then the action of the combination is super-additive, i.e. there is a synergistic effect. In mathematical terms, synergism corresponds to a positive value for the difference of (O-E). In the case of purely complementary addition of activities (expected activity), said difference (O-E) is zero. A negative value of said difference (O-E) signals a loss of activity compared to the expected activity. Botrytis cinerea (GRAY Mould): Conidia of the fungus from cryogenic storage were directly mixed into nutrient broth ([…] potato dextrose broth). A DMSO solution of the test compounds was placed into a microtiter plate (96-well format) and the nutrient broth containing the fungal spores was added to it. The test plates were incubated at 24 C and the inhibition of growth was determined photometrically after 72 hrs.

In test [3] the test system is Glomerella lapenarium Syn. Colletotrichum lapenarium. The experiment in a line: Glomerella lapenarium syn. Colletotrichum lapenarium (anthracnose of cucurbits) growth inhibition in nutrient broth, photometric after 72 hrs at 620 nm. The text has this:
A synergistic effect exists whenever the action of an active ingredient combination is greater than the sum of the actions of the individual components. The action to be expected E for a given active ingredient combination obeys the so-called COLBY formula and can be calculated as follows (COLBY, S. R. “Calculating synergistic and antagonistic responses of herbicide combination”. Weeds, Vol. 15, pages 20-22; 1967): • ppm=milligrams of active ingredient (=a.i.) per liter of spray mixture • X=% action by active ingredient A) using p ppm of active ingredient • Y=% action by active ingredient B) using q ppm of active ingredient. According to COLBY, the expected (additive) action of active ingredients A)+B) using p+q ppm of active ingredient is If the action actually observed (O) is greater than the expected action (E), then the action of the combination is super-additive, i.e. there is a synergistic effect. In mathematical terms, synergism corresponds to a positive value for the difference of (O-E). In the case of purely complementary addition of activities (expected activity), said difference (O-E) is zero. A negative value of said difference (O-E) signals a loss of activity compared to the expected activity. Glomerella lapenarium Syn. Colletotrichum lapenarium (Anthracnose of Cucurbits): Conidia of the fungus from cryogenic storage were directly mixed into nutrient broth ([…] potato dextrose broth). A DMSO solution of the test compounds was placed into a microtiter plate (96-well format) and the nutrient broth containing the fungal spores was added to it. The test plates were incubated at 24 C and the inhibition of growth was determined photometrically after 72 hrs at 620 nm.

In test [4] the test system is Mycosphaerella arachidis syn. Cercospora arachidicola. Kind of test: Mycosphaerella arachidis syn. Cercospora arachidicola (brown leaf spot of peanut) growth inhibition in nutrient broth, photometric after 5-6 days at 620 nm. The text has this:
A synergistic effect exists whenever the action of an active ingredient combination is greater than the sum of the actions of the individual components. The action to be expected E for a given active ingredient combination obeys the so-called COLBY formula and can be calculated as follows (COLBY, S. R. “Calculating synergistic and antagonistic responses of herbicide combination”. Weeds, Vol. 15, pages 20-22; 1967): • ppm=milligrams of active ingredient (=a.i.) per liter of spray mixture • X=% action by active ingredient A) using p ppm of active ingredient • Y=% action by active ingredient B) using q ppm of active ingredient. According to COLBY, the expected (additive) action of active ingredients A)+B) using p+q ppm of active ingredient is If the action actually observed (O) is greater than the expected action (E), then the action of the combination is super-additive, i.e. there is a synergistic effect. In mathematical terms, synergism corresponds to a positive value for the difference of (O-E). In the case of purely complementary addition of activities (expected activity), said difference (O-E) is zero. A negative value of said difference (O-E) signals a loss of activity compared to the expected activity. Mycosphaerella arachidis syn. Cercospora arachidicola (Brown leaf spot of peanut): Conidia of the fungus from cryogenic storage were directly mixed into nutrient broth (PDB potato dextrose broth). A DMSO solution of the test compounds was placed into a microtiter plate (96-well format) and the nutrient broth containing the fungal spores was added to it. The test plates were incubated at 24 C and the inhibition of growth was determined photometrically after 5-6 days at 620 nm

Test [5] relates to Sclerotinia sclerotiorum. Kind of test: Sclerotinia sclerotiorum (cottony rot, white mold) growth inhibition in nutrient broth, photometric after 72 hrs at 620 nm. The text has this:
A synergistic effect exists whenever the action of an active ingredient combination is greater than the sum of the actions of the individual components. The action to be expected E for a given active ingredient combination obeys the so-called COLBY formula and can be calculated as follows (COLBY, S. R. “Calculating synergistic and antagonistic responses of herbicide combination”. Weeds, Vol. 15, pages 20-22; 1967): • ppm=milligrams of active ingredient (=a.i.) per liter of spray mixture • X=% action by active ingredient A) using p ppm of active ingredient • Y=% action by active ingredient B) using q ppm of active ingredient. According to COLBY, the expected (additive) action of active ingredients A)+B) using p+q ppm of active ingredient is If the action actually observed (O) is greater than the expected action (E), then the action of the combination is super-additive, i.e. there is a synergistic effect. In mathematical terms, synergism corresponds to a positive value for the difference of (O-E). In the case of purely complementary addition of activities (expected activity), said difference (O-E) is zero. A negative value of said difference (O-E) signals a loss of activity compared to the expected activity. Sclerotinia sclerotiorum (Cottony Rot, White Mold, Etc.) Mycelial fragments of the fungus prepared from a fresh liquid culture were directly mixed into nutrient broth (PDB potato dextrose broth). A DMSO solution of the test compounds was placed into a microtiter plate (96-well format) and the nutrient broth containing the fungal spores was added to it. The test plates were incubated at 24 C and the inhibition of growth was determined photometrically after 72 hrs at 620 nm.

For `CCC(=O)Oc1c(OC)ccnc1C(=O)N[C@@H](C)C(=O)O[C@@H](C)[C@@H](C)c1ccccc1C` [Metarylpicoxamid, metarylpicoxamid], the “Observed Activity (%)” value in test [1] (0.22 ppm) is reported as 20%; in test [1] (0.66 ppm), 50%; in test [1] (2 ppm), 50%; in test [2] (0.0246 ppm) it was 0%; in test [2] (0.074 ppm), 20%; in test [2] (0.22 ppm), 50%. Also, the “Observed Activity (%)” value is 70% in test [2] (0.66 ppm), 70% in test [3] (2 ppm) and 20% in test [4] (0.0246 ppm).
With `O=C(NC1CCC1c1ccc(Cl)cc1Cl)c1cccnc1C(F)(F)F` (stereo in doubt) [Cyclobutrifluram, cyclobutrifluram], the “Observed Activity (%)” value in test [1] (0.0008 ppm) is 0%; in test [1] (0.00246 ppm), 20%; in test [1] (0.0074 ppm), 50%; in test [1] (0.022 ppm), 70%; in test [2] (0.066 ppm), 20%; in test [2] (0.074 ppm), 20%. The “Observed Activity (%)” value amounted to 50% in test [2] (0.2 ppm), 50% in test [2] (0.22 ppm), 70% in test [2] (0.66 ppm) and 20% in test [5] (0.074 ppm).
Turning to `CCS(=O)(=O)c1cc(C(F)(F)F)ccc1C(=O)N(C(C)=O)c1ccc(OC(F)(F)F)cc1C(=O)OC` [Compound A-1.1, Methyl 2-[acetyl-[2-ethylsulfonyl-4-(trifluoromethyl)benzoyl]amino]-5-(trifluoromethoxy)benzoate], the inhibition at 1 ppm in test [1] (Alternaria solani, 1 ppm, read-out: Observed Activity (%)) was determined as 50%; in test [2] (Botrytis cinerea, 1 ppm, read-out: Observed Activity (%)), 50%; in test [3] (Colletotrichum, 1 ppm, read-out: Observed Activity (%)), 0%. The inhibition at 2 ppm was 50% in test [1] (Alternaria solani, 2 ppm, read-out: Observed Activity (%)); 50% in test [2] (Botrytis cinerea, 2 ppm, read-out: Observed Activity (%)); 0% in test [3] (Colletotrichum, 2 ppm, read-out: Observed Activity (%)). In addition, the inhibition at 10 ppm in test [2] (Botrytis cinerea, 10 ppm, read-out: Observed Activity (%)) worked out at 50%; in test [3] (Colletotrichum, 10 ppm, read-out: Observed Activity (%)), 70%; in test [4] (Mycosphaerella arachidis, 10 ppm, read-out: Observed Activity (%)) it was 0%; in test [5] (Sclerotinia sclerotiorum, 10 ppm, read-out: Observed Activity (%)), 0%. The inhibition at 20 ppm in test [2] (Botrytis cinerea, 20 ppm, read-out: Observed Activity (%)) stood at 50%; in test [3] (Colletotrichum, 20 ppm, read-out: Observed Activity (%)) it was 70%; in test [4] (Mycosphaerella arachidis, 20 ppm, read-out: Observed Activity (%)), 0%; in test [5] (Sclerotinia sclerotiorum, 20 ppm, read-out: Observed Activity (%)) it was 0%.
`N#Cc1ccc(Oc2ccc(C(F)(F)C(O)(Cn3[nH]cnc3=S)c3ccc(F)cc3F)nc2)cc1` (stereo not drawn) [Fluoxytioconazole, fluoxytioconazole]: the “Observed Activity (%)” value in test [2] (0.22 ppm) is 0%; in test [2] (0.66 ppm), 0%; in test [2] (2 ppm), 0%; in test [2] (6 ppm) it was 20%.
Turning to `CON(C(=O)c1cn(C)nc1C(F)F)C(C)Cc1c(Cl)cc(Cl)cc1Cl` (stereo not drawn) [Pydiflumetofen, pydiflumetofen], the “Observed Activity (%)” value in test [1] (0.0008 ppm) came to 0%; in test [1] (0.00246 ppm) it was 50%; in test [1] (0.0074 ppm) it was 70%; in test [2] (0.0008 ppm), 0%; in test [2] (0.00246 ppm) it was 20%; in test [2] (0.0074 ppm) it was 50%. The “Observed Activity (%)” value in test [2] (0.022 ppm) was 70%.
As to `O=C(Nc1ccccc1F)c1ccc(-c2noc(C(F)(F)F)n2)cc1` [Flufenoxadiazam, flufenoxadiazam], the “Observed Activity (%)” value in test [3] (0.08 ppm), in test [3] (0.246 ppm), in test [3] (0.74 ppm) and in test [3] (2.22 ppm) was 20% throughout.

For the origin of these results see US20240341307A1, “FUNGICIDAL COMPOSITIONS” (SYNGENTA CROP PROTECTION AG, priority 2021, published 2024).
